Measurements as given in patent US11013740B2, “Histone deacetylase 6 selective inhibitors for the treatment of cisplatin-induced peripheral neuropathy” (REGENACY PHARMACEUTICALS, LLC, priority 2015, dated 2021).

Tested on: cisplatin-induced spontaneous pain
Test: Conditioned place preference test for spontaneous pain
Format: in vivo, mice
Conditions: cisplatin followed by two weeks of daily compound
Protocol: Spontaneous pain was tested using a conditioning paradigm with retigabine as the conditioned stimulus that was originally described in a rat model (Yang Q, et al. Persistent pain after spinal cord injury is maintained by primary afferent activity. The Journal of Neuroscience. 2014; 34(32):10765-9; Ahmed B, et al. Recent changes in practice of elective percutaneous coronary intervention for stable angina. Circ. Cardiovasc. Qual. Outcomes. 2011; 4(3):300-5.). Retigabine is a […] with a rapid onset of action but only brief duration (45-60 min). […] Mol. Pain. 2010; 6(49); Passmore G M, et al. KCNQ/M currents in sensory neurons: significance for pain therapy. The Journal of Neuroscience, 2003; 23(18):7227-36). Briefly, during pre-conditioning, mice were allowed to freely explore for 15 min the CPP apparatus. The CPP apparatus consisted of 2 chambers (18×20 cm, one dark, one white) connected by a 15 cm hallway (Stoelting, Wood Dale, Ill.). The time spent in the light chamber was recorded. During the conditioning phase, saline was injected intraperitoneally in the morning and the mice were then kept in the dark chamber for 20 min. Three hours later, the analgesic retigabine (#R-100, Alomone laboratory, Jerusalem, Israel) […] the mice were immediately placed in the light chamber for 20 min. Conditioning was repeated for four consecutive days. […]

O=C(NO)c1cnc(NC2(c3ccccc3)CCC(F)(F)CC2)nc1 [compound 001]
change in time spent in retigabine-paired light chamber (spontaneous pain): did not develop a preference for the retigabine-paired light chamber
